The values below come from patent US20220143224A1, “MRI CONTRAST AGENT FOR USE IN THE DIAGNOSIS OF EARLY CHANGES IN THE ENDOTHELIUM OF BLOOD VESSELS” (UNIWERSYTET JAGIELLONSKI, priority 2019, published 2022).

In assay [1] the test system is abdominal aorta (AA) in ApoE/LDLR−/− mice. In words: MRI-based endothelium-dependent response to acetylcholine in abdominal aorta. Type of assay: in vivo. To be noted: for AA volume change: intraperitoneal Ach, 25 minutes after administration; for change in AA volume: paradoxical vasoconstriction. The method, then:
(§1) The experiments were performed using female ApoE/LDLR−/− mice of different ages: 4-, 6-, 8-, 12- and 28-week-old(19) in comparison to control young (8-week-old) mice (C57BL/6) without endothelial dysfunction. All mice (body weight 20-30 g) were housed under standard pathogen-free conditions (LD: 12/12, humidity: 60%, temperature: 23° C.).
(§2) MRI experiments were carried out using a 9.4 T scanner (BioSpec 94/20 USR, Bruker, Germany). During the experiment, mice were anesthetized using isoflurane (Aerrane, Baxter Sp. z o.o., Poland, 1.5% by volume) in an oxygen and air mixture (1:2). Cardiac activity, respiration rate and body temperature (maintained at 37° C., using circulating warm water) were monitored using Monitoring and Gating System (SA Inc., Stony Brook, N.Y., USA). Mice were imaged in the supine position to test endothelial function and permeability in various blood vessels.
(§3) Endothelium-dependent response to acetylcholine (Ach), expressed as changes in vessel volume, was assessed in the brachiocephalic artery (BCA) visible on the 3D image of the aortic arch (A) and in the abdominal aorta (AA) positioned on the sagittal view of the mouse (B). Assessment of vessel response to flow-mediated dilation (FMD), also expressed as changes in vessel volume, was performed in the femoral artery (FA), visible on the 3D image of the left hind limb (D). Pixels for which T1 had changed more than 50% after CA (Npx50) were marked in red on a representative cross-sectional image of blood vessels arising from the aortic arch (C).
To assess the sensitivity of endothelial dysfunction detection using the new contrast agent, being an invention, impaired endothelial function in ApoE/LDLR−/− mice was also assessed by other MRI-based techniques; detection of endothelium-dependent response to acetylcholine (FIG. 5) and measurement of increase in flow after short-term vessel occlusion (FMD, FIG. 6). As described in our recent publication(22), endothelium-dependent response to acetylcholine (Ach, FIG. 5B) in abdominal aorta (AA) is the most sensitive in vivo method to detect changes in endothelial phenotype. […]
Changes in the end-diastolic volume of brachiocephalic artery (A: BCA-ACH) and abdominal aorta (B: AA-ACH) 25 minutes after administration of acetylcholine in ApoE/LDLR−/− mice (white columns) of different ages: 4-week-old ApoE/LDLR−/− mice, 6-week-old ApoE/LDLR−/− mice, 8-week-old ApoE/LDLR−/− mice, 12-week-old ApoE/LDLR−/− mice, 28-week-old ApoE/LDLR−/− mice as compared to 8-week-old control C57BL/6 mice, (C57_8W, n=4, black columns). Statistics: one-way ANOVA followed by Tukey's post hoc test (normality was assessed using the Shapiro-Wilk test); *p<0.05, **p<0.01, ***p<0.001.

The subject of assay [2] is brachiocephalic artery (BCA) in ApoE/LDLR−/− mice. Put plainly: MRI-based endothelium-dependent response to acetylcholine in brachiocephalic artery. Type of assay: in vivo. On the procedure:
as §1, §2, §3
To assess the sensitivity of endothelial dysfunction detection using the new contrast agent, being an invention, impaired endothelial function in ApoE/LDLR−/− mice was also assessed by other MRI-based techniques; detection of endothelium-dependent response to acetylcholine (FIG. 5) and measurement of increase in flow after short-term vessel occlusion (FMD, FIG. 6). […]

Turning to `CC(=O)OCC[N+](C)(C)C` [Ach, acetylcholine], the results for the AA volume change result in assay [1] (4-week-old ApoE/LDLR−/− mice) and in assay [1] (control mice (8-week-old C57BL/6)) were “about 23%” and “about 34%”, respectively. Moreover, the “change in AA volume” value in assay [1] (12-week-old ApoE/LDLR−/− mice) is listed as “about −8%”; in assay [1] (28-week-old ApoE/LDLR−/− mice) it was approximately −23%. Besides, the “changes in BCA volume” value in assay [2] (4 to 8-week-old ApoE/LDLR−/− mice) is “approximately 10%”. In assay [2] (8-week-old control mice (C57BL/6)), the “volume change in the BCA” value was found to be 11.26%. Besides, the BCA volume changes result in assay [2] (12-week-old ApoE/LDLR−/− mice) is reported as “about 2%”.
